According to patent US20250082914A1 (priority 2022, published 2025):

Key:
[1] = In vitro drug release, USP device type II, SGF then SIF; type: physicochemical; details: after switch from SGF pH 1.2 (30 min) to SIF pH 6.8; 37° C., 100 rpm; 8 mm device, 20 mg desmopressin, 40 mg PVP, enteric capsule
Experimental: The temperature was set at 37° C., and the rotating speed was at 100 rpm. Aliquots of 1 mL were sampled at the predetermined time points and the sampled volume was replaced with fresh SGF or SIF buffer. Quantification was carried by HPLC (VWR Hitachi Chromaster system with 5160 pump, 5260 autosampler, 5310 column oven and 5430 diode array detector, VWR International, Radnor, PA) with the UV wavelength set at 280 nm. […] At the intestinal pH, desmopressin started being released when the solvent was switched to SIF and was completely released within about 20 minutes. […] The drug release kinetics is also controlled with the polymeric excipient.

[2] = in the presence of permeation enhancers; cited from earlier work

NC(=O)CC[C@@H]1NC(=O)[C@H](Cc2ccccc2)NC(=O)[C@H](Cc2ccc(O)cc2)NC(=O)CCSSC[C@@H](C(=O)N2CCC[C@H]2C(=O)N[C@H](CCCN=C(N)N)C(=O)NCC(N)=O)NC(=O)[C@H](CC(N)=O)NC1=O [desmopressin]
time to complete release of desmopressin [1]: ≤ 20 min

C[C@@H](O)[C@@H]1NC(=O)[C@H](CCCCN)NC(=O)[C@@H](Cc2c[nH]c3ccccc23)NC(=O)[C@H](Cc2ccccc2)NC(=O)[C@@H](NC(=O)[C@H](N)Cc2ccccc2)CSSC[C@@H](C(=O)N[C@H](CO)[C@@H](C)O)NC1=O [octreotride]
oral bioavailability [2]: 0.5-1%

semaglutide
oral bioavailability [2]: ~1%
